# Experiments:
# [1] = tested on: d(TG4T) (DNA, G4) TGGGGT; test: ITC; conditions: 60 mM KCl, 10 mM sodium cacodylate, 0.5 mM EDTA, pH 7.0, 20 °C
# [2] = tested on: d(T4G4T4) (DNA, G4) TTTTGGGGTTTT; test: ITC; conditions: 90 mM KCl; 10 mM sodium cacodylate, 0.5 mM EDTA, pH 7.0, 20 °C; one binding event, isotherm not fitted
# [3] = tested on: CEB1 (DNA, G4) AGGGGGGAGGGAGGGTGG; test: ITC; conditions: 60 mM KCl; 10 mM sodium cacodylate, 0.5 mM EDTA, pH 7.0, 20 °C
# [4] = tested on: d(TG4T) (DNA, G4) TGGGGT; test: fluorescent intercalator displacement; conditions: 10 mM sodium cacodylate, 0.5 mM EDTA, pH 7.0, 21-23 °C, thiazole orange displaced, 1 μM neomycin, 1 μM quadruplex
# [5] = tested on: d(T3G4T3) (DNA, G4) TTTGGGGTTT; test: ITC; conditions: 60 mM KCl; 10 mM sodium cacodylate, 0.5 mM EDTA, pH 7.0, 20 °C; one binding event, isotherm not fitted
# [6] = tested on: d(T2G4T2) (DNA, G4) TTGGGGTT; test: ITC; conditions: 60 mM KCl; 10 mM sodium cacodylate, 0.5 mM EDTA, pH 7.0, 20 °C
# [7] = tested on: d(UG4T) (DNA, G4, 2'-deoxyuridine at 1) UGGGGT; test: ITC; conditions: 60 mM KCl; 10 mM sodium cacodylate, 0.5 mM EDTA, pH 7.0, 20 °C
"binding ([1]; isotherm could not be fitted, 300 μM titrant)",binding [2],association constant [3],Ka1 ([1]; site 1 of 2),% fluorescence change ([4]; 30 mM NaCl),% fluorescence change ([4]; 60 mM KCl),binding [5],Ka [6],Ka [7],SMILES
weak,,,,,,,,,NC[C@@H]1O[C@H](O[C@H]2[C@@H](O)[C@H](O[C@@H]3[C@@H](O)[C@H](N)C[C@H](N)[C@H]3O[C@H]3O[C@H](CO)[C@@H](O)[C@H](O)[C@H]3N)O[C@@H]2CO)[C@H](N)[C@@H](O)[C@@H]1O
,yes,723000 M⁻¹,2.10 ± 0.80 × 10^8 M^-1,~ 25%,~ 15%,yes,59000 M⁻¹,1.23 ± 0.05 × 10^6 M^-1,NC[C@@H]1O[C@H](O[C@H]2[C@@H](O)[C@H](O[C@@H]3[C@@H](O)[C@H](N)C[C@H](N)[C@H]3O[C@H]3O[C@H](CN)[C@@H](O)[C@H](O)[C@H]3N)O[C@@H]2CO)[C@H](N)[C@@H](O)[C@@H]1O
